“And” between values parts separate entries of the source, which are not always exact repeats. Identical values can stand only once. Like-named read-outs stand apart in the source and are kept apart here.
Tests used:
[1] = biological target: PpADK2 (Physcomitrium patens, UniProt A9RF27); assay: ADK activity, coupled reaction with PK and LDH; conditions: 100 µM substrate, 10 mM ATP, pH 7.5, 30 °C
Protocol: (§1) Substrate analogs were purchased from Sigma-Aldrich (www.sigmaaldrich.com). The ADK activity was measured spectrophotometrically on an Agilent 8453 UV-Vis spectrophotometer (www.agilent.com) at 30 °C using a coupled reaction with pyruvate kinase (PK) and lactate dehydrogenase (LDH) (www.sigmaaldrich.com) ([Blondin et al., 1994]). In this assay, PK converts ADP produced by ADK and phosphoenolpyruvate (PEP) to pyruvate. Subsequently, LDH then converts pyruvate to lactate using the coenzyme NADH, with the conversion monitored at 340 nm. The reaction was conducted in 50 mM Tris–HCl buffer at pH 7.5, containing 50 mM KCl, 6 mM MgCl2, 300 µM PEP, 200 µM NADH, 10 mM ATP, 2 U of PK, and 2.5 U of LDH, using various nucleoside substrates. Kinetic constants were determined using GraphPad Prism 8.0 software (www.graphpad.com). Each measurement was performed six times using repetitive purified enzymes. The activities of all five ADKs were also measured by HPLC ([Moffatt et al., 1991]). The reaction mixture comprised 50 mM Tris–HCl pH 7.5, 5 mM MgCl2, 0.5 mM DTT, 30 mM NaF, 5 mM ATP, 40 µM substrate, and 2–150 ng of purified ADK, depending on the isoform. The reaction was incubated at 30 °C for up to 1 h. […] Similarly, the conversion of cytokinin ribosides to monophosphates was followed on a LiChrosphere 60 RP-Select B (5 µm) LiChroCART column 125-4 column equilibrated with 10 mM triethylamine at pH 5.4 plus 10% methanol, and stepwise eluted with 100% methanol.

[2] = biological target: ZmADK1 (Zea mays, UniProt K7UH13); assay: ADK activity, coupled reaction with PK and LDH; conditions: 100 µM substrate, 10 mM ATP, pH 7.5, 30 °C
ZmADK1, sequence (K7UH13 entry or part of it): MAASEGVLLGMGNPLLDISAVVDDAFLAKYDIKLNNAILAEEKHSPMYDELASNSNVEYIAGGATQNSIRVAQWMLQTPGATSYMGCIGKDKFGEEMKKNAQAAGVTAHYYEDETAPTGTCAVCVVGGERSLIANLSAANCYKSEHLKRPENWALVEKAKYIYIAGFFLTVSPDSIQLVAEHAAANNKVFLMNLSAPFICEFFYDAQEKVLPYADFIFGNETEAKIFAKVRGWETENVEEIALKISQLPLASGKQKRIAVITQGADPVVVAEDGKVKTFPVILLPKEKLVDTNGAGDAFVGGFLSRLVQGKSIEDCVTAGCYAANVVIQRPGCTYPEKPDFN
Protocol: as §1

[3] = biological target: T1, ZmADK2 (Zea mays, UniProt B4FFH8, T4S); assay: ADK activity, coupled reaction with PK and LDH; format: biochemical; conditions: ZmADK2, 10 mM ATP, pH 7.5, 30 °C; for Specific activity: 100 µM substrate
T1 sequence (B4FFH8 1-342 T4S): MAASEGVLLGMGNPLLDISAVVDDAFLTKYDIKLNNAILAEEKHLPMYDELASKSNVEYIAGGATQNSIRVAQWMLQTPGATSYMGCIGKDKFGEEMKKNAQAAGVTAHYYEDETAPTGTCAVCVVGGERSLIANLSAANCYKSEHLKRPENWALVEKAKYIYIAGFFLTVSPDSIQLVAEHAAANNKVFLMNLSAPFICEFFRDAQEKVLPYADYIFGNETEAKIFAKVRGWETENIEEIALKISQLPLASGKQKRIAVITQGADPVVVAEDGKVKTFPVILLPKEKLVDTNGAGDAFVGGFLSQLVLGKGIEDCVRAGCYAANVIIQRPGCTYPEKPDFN
Protocol: as §1

[4] = biological target: ZmADK3 (Zea mays, UniProt A0A1D6E5Z5); assay: ADK activity, coupled reaction with PK and LDH; format: biochemical; conditions: ZmADK3; 100 µM substrate; 10 mM ATP; pH 7.5; 30 °C
ZmADK3, sequence (A0A1D6E5Z5 entry or part of it): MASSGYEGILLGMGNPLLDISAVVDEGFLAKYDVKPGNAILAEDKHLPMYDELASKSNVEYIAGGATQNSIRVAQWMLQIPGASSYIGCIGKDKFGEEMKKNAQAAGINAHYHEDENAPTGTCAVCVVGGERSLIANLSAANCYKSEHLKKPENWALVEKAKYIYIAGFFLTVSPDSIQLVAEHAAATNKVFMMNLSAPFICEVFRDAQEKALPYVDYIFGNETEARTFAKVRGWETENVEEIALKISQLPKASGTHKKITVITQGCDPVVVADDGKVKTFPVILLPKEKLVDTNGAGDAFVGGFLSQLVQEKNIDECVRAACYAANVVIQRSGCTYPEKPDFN
Protocol: Substrate analogs were purchased from Sigma-Aldrich (www.sigmaaldrich.com). […] In this assay, PK converts ADP produced by ADK and phosphoenolpyruvate (PEP) to pyruvate. Subsequently, LDH then converts pyruvate to lactate using the coenzyme NADH, with the conversion monitored at 340 nm. The reaction was conducted in 50 mM Tris–HCl buffer at pH 7.5, containing 50 mM KCl, 6 mM MgCl2, 300 µM PEP, 200 µM NADH, 10 mM ATP, 2 U of PK, and 2.5 U of LDH, using various nucleoside substrates. Kinetic constants were determined using GraphPad Prism 8.0 software (www.graphpad.com). Each measurement was performed six times using repetitive purified enzymes. […] The reaction mixture comprised 50 mM Tris–HCl pH 7.5, 5 mM MgCl2, 0.5 mM DTT, 30 mM NaF, 5 mM ATP, 40 µM substrate, and 2–150 ng of purified ADK, depending on the isoform. The reaction was incubated at 30 °C for up to 1 h.

[5] = biological target: T2, PpADK1 (Physcomitrium patens, UniProt O49923); assay: ADK activity, coupled reaction with PK and LDH; format: biochemical, Physcomitrella patens; conditions: 100 µM substrate, 10 mM ATP, pH 7.5, 30 °C
T2 construct: made in house; host or cells: E. coli T7 Express Iq
T2 sequence (O49923 whole entry): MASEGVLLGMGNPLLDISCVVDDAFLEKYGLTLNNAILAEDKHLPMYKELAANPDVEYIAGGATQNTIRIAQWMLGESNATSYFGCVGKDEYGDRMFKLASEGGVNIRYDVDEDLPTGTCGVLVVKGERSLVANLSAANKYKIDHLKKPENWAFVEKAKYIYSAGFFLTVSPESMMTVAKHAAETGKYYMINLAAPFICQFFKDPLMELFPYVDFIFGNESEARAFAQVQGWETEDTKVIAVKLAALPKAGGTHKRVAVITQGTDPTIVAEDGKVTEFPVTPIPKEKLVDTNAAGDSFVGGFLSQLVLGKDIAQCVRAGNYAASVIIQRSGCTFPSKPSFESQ
Protocol: as §1

[6] = biological target: T1, ZmADK2; assay: Binding affinity by microscale thermophoresis (MST); conditions: for Kd: MST; for weaker affinity compared with Ado: ratio of KD values
Protocol: (§2) The microscale thermophoresis (MST) method was used to determine the binding affinity of various ribosides for ZmADK2 and PpADK1. Proteins were fluorescently labeled with RED-tris-NTA dye (www.nanotemper-technologies.com) using a 1:1 dye/protein molar ratio. The labeled protein was adjusted to 100–300 nM in 50 mM HEPES buffer pH 7.5, 1 mM MgCl2, and 0.2% Tween. Measurements were performed in premium capillaries on a Monolith NT.115 instrument at 30 °C with 5 s/30 s/5 s laser off/on/off times, respectively, with continuous sample fluorescence recording. Thermal stability was measured by nano-differential scanning fluorimetry on a Prometheus NT.48 instrument (www.nanotemper-technologies.com) in various buffers covering a pH (7.0–9.5) and temperature range (25–95 °C), with a heating rate of 1 °C min^–1, and using NT melting control software. Protein unfolding was measured by detecting the temperature-induced change in tryptophan fluorescence intensity at emission wavelengths of 330±5 nm and 350±5 nm. The melting temperature (Tm) was deduced from the maximum of the first derivative of the fluorescence ratios F350/F330.

[7] = tested on: rabbit ADK; parameters: method as in Miller et al., 1979a; conditions: ref Miller et al., 1979a; cited from earlier work
[8] = biological target: T2, PpADK1; assay: Binding affinity by microscale thermophoresis (MST); parameters: species or system Physcomitrella patens
Protocol: as §2

[9] = 50 mM HEPES pH 7.5, 1 mM MgCl2, first or only binding event, read-out: KD
[10] = KD, 50 mM HEPES pH 7.5, 1 mM MgCl2, first or only binding event
[11] = second binding event (ATP site), read-out: second (higher) KD value

PpADK2, sequence (A9RF27 entry or part of it): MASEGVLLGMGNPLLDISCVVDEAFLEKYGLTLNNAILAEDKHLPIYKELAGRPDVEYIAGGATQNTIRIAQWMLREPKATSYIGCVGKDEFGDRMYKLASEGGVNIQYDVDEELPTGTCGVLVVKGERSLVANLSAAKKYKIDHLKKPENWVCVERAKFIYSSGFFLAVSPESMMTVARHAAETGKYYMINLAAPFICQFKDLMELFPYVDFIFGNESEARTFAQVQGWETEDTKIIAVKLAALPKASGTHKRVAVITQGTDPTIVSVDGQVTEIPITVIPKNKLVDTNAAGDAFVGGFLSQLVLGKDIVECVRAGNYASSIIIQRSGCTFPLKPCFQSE

Structure (SMILES): C/C(=C\CNc1ncnc2c1ncn2[C@@H]1O[C@H](CO)[C@@H](O)[C@H]1O)CO (relative stereo) [tZR, trans-zeatin riboside]
- Specific activity [1]: 0.83±0.08 nmol s^–1 mg^–1
- Specific activity [2]: 2.7±0.3 nmol s^–1 mg^–1
- Specific activity [3]: 3.8±0.4 nmol s^–1 mg^–1
- Specific activity [4]: 2.7±0.4 nmol s^–1 mg^–1
- Specific activity [5]: 0.74±0.06 nmol s^–1 mg^–1

Structure (SMILES): Nc1ncnc2c1ncn2C1CC(O)C(CO)O1 (centres unmarked) [2′-DeoxyAdo]
- Km [3]: 506 ± 39 µM
- kcat [3]: 0.46±0.02 s^–1
- Km ([3]; listed as 2′-deoxyAdo): ~500 µM
- Kd ([6]; 50 mM HEPES pH 7.5, 1 mM MgCl2, first or only binding event, listed as 2′-deoxyAdo, read-out: KD): ~500 µM
- Kd [6, 9]: 505 ± 94 µM
- weaker affinity compared with Ado [6]: ~ 1200 fold
- Km [7]: 575 µM

Structure (SMILES): Nc1ncnc2c1ncn2[C@@H]1O[C@H](CO)C[C@H]1O [3′-DeoxyAdo, cordycepin]
- Kd [6, 10]: 175 ± 9 µM
- Km [7]: 254 µM

Structure (SMILES): Nc1ncnc2c1ccn2[C@@H]1O[C@H](CO)[C@@H](O)[C@H]1O [7-DeazaAdo, tubercidin]
- Km [3]: 3.4 ± 0.4 µM
- kcat [3]: 0.17±0.01 s^–1
- Kd [6, 10]: 2.2 ± 0.7 µM
- weaker affinity compared with Ado [6]: ~ 5.5 fold

Structure (SMILES): Nc1ncnc2c1ncn2[C@@H]1O[C@H](COP(=O)(O)OP(=O)(O)O)[C@@H](O)[C@H]1O [ADP]
- Kd ([6]; 50 mM HEPES pH 7.5, 1 mM MgCl2, read-out: KD): 10300 ± 1200 µM

Structure (SMILES): Nc1ncnc2c1ncn2C1OC(COP(=O)(O)O)C(O)C1O (centres unmarked) [AMP]
- Kd [6, 10]: 247 ± 71 µM
- Kd ([6]; second KD value, KD(2), second binding event (ATP site)): ~8000 µM and 8300 µM
- Kd ([6]; second KD value, second binding event (ATP site)): 8300 ± 2070 µM
- Kd [8, 9]: 121 µM
- Kd [8, 11]: 8300 µM

Structure (SMILES): Nc1ncnc2c1ncn2[C@@H]1O[C@H](COP(=O)(O)OP(=O)(O)OP(=O)(O)OP(=O)(O)OP(=O)(O)OC[C@H]2O[C@@H](n3cnc4c(N)ncnc43)[C@H](O)[C@@H]2O)[C@@H](O)[C@H]1O [AP5A, diadenosine pentaphosphate]
- Kd [6, 9]: 14.5 ± 9.2 µM
- Kd ([6]; second binding event (ATP site), read-out: second KD value): 949 ± 46 µM
- Kd [8, 9]: 8.1 ± 1.1 µM
- Kd [8, 11]: 630 ± 120 µM

Structure (SMILES): Nc1ncnc2c1ncn2[C@@H]1O[C@H](CO)[C@@H](O)[C@@H]1O [AraA, Adenine arabinoside]
- Kd [6, 10]: > 500 µM

Structure (SMILES): OC[C@H]1O[C@@H](n2cnc3c(NCc4ccccc4)ncnc32)[C@H](O)[C@@H]1O [BAPR, 6-benzylaminopurine riboside]
- Specific activity [1]: 0.89±0.07 nmol s^–1 mg^–1
- Specific activity [2]: 3.3±0.2 nmol s^–1 mg^–1
- Specific activity [3]: 5.1±0.6 nmol s^–1 mg^–1
- Specific activity [4]: 5.3±0.4 nmol s^–1 mg^–1
- Specific activity [5]: 0.84±0.04 nmol s^–1 mg^–1
- Km [7]: 12 µM
- activity compared with Ado [7]: 29%

Structure (SMILES): Nc1ccn([C@@H]2O[C@H](CO)[C@@H](O)[C@H]2O)c(=O)n1 [Cytidine]
- Kd [6, 10]: 286 ± 10 µM

Structure (SMILES): Nc1nc2c(ncn2[C@@H]2O[C@H](CO)[C@@H](O)[C@H]2O)c(=O)[nH]1 [Guanosine]
- Kd [6, 10]: 217 ± 107 µM

Structure (SMILES): OC[C@H]1O[C@@H](n2cnc3c(O)ncnc32)[C@H](O)[C@@H]1O [Inosine]
- Kd [6, 10]: 440 ± 180 µM

Structure (SMILES): CN(C)c1ncnc2c1ncn2[C@@H]1O[C@H](CO)[C@@H](O)[C@H]1O [N ^6,N^6-DimethylAdo, 6-(dimethylamino)-9H-purine-9-β-D-riboside]
- Specific activity [1]: 0.86±0.03 nmol s^–1 mg^–1
- Specific activity [2]: 3.0±0.3 nmol s^–1 mg^–1
- Specific activity [3]: 3.2±0.0 nmol s^–1 mg^–1
- Km [3]: 11.2 ± 2.8 µM
- kcat [3]: 0.20±0.02 s^–1
- Specific activity [4]: 5.1±0.4 nmol s^–1 mg^–1
- Specific activity [5]: 0.91±0.02 nmol s^–1 mg^–1
- Kd [6, 9]: 12.3 ± 4.6 µM

Structure (SMILES): CC(C)CNc1ncnc2c1ncn2[C@@H]1O[C@H](CO)[C@@H](O)[C@H]1O [N ^6-IsobutylAdo]
- Specific activity [1]: 0.75±0.08 nmol s^–1 mg^–1
- Specific activity [2]: 2.1±0.4 nmol s^–1 mg^–1
- Specific activity [3]: 4.2±0.6 nmol s^–1 mg^–1
- Km [3]: 70.4 ± 8.9 µM
- kcat [3]: 0.21±0.01 s^–1
- Specific activity [4]: 4.8±0.5 nmol s^–1 mg^–1
- Specific activity [5]: 0.90±0.06 nmol s^–1 mg^–1
- Kd [6, 9]: 45.9 ± 9.3 µM

Structure (SMILES): CC(C)Nc1ncnc2c1ncn2[C@@H]1O[C@H](CO)[C@@H](O)[C@H]1O [N ^6-IsopropylAdo]
- Specific activity [1]: 0.83±0.05 nmol s^–1 mg^–1
- Specific activity [2]: 2.2±0.2 nmol s^–1 mg^–1
- Specific activity [3]: 3.9±0.5 nmol s^–1 mg^–1
- Km [3]: 54.8 ± 5.8 µM
- kcat [3]: 0.19±0.01 s^–1
- Specific activity [4]: 3.8±0.3 nmol s^–1 mg^–1
- Specific activity [5]: 0.96±0.09 nmol s^–1 mg^–1
- Kd [6, 9]: 52.8 ± 13.9 µM

Structure (SMILES): CNc1ncnc2c1ncn2[C@@H]1O[C@H](CO)[C@@H](O)[C@H]1O [N ^6-MethylAdo, 6-methylamino-9H-purine-9-β-D-riboside]
- Specific activity [1]: 0.86±0.03 nmol s^–1 mg^–1
- Specific activity [2]: 2.7±0.2 nmol s^–1 mg^–1
- Specific activity [3]: 2.9±0.3 nmol s^–1 mg^–1
- Km [3]: 10.7 ± 1.5 µM
- kcat [3]: 0.24±0.02 s^–1
- Specific activity [4]: 5.1±0.4 nmol s^–1 mg^–1
- Specific activity [5]: 0.89±0.00 nmol s^–1 mg^–1
- Kd [6, 9]: 8.7 ± 2.5 µM

Structure (SMILES): O=c1ccn([C@@H]2O[C@H](CO)[C@@H](O)[C@H]2O)c(=O)[nH]1 [Uridine]
- Km [3]: > 1000 µM
- kcat [3]: 0.15±0.03 s^–1
- Kd [6, 10]: > 5000 µM

Structure (SMILES): O=c1[nH]c(=O)c2ncn([C@@H]3O[C@H](CO)[C@@H](O)[C@H]3O)c2[nH]1 [Xanthosine]
- Kd [6, 10]: 166 ± 77 µM

Structure (SMILES): C/C(=C\CNc1ncnc2c1ncn2[C@@H]1O[C@H](CO)[C@@H](O)[C@H]1O)CO [ZR]
- Km [7]: 20 µM
- activity compared with Ado [7]: 6.3%

From publication PMC12369479 (Journal of Experimental Botany, 2025)
